# Test results reported in patent US10786484B2, “Mono- or di-substituted indole derivatives as dengue viral replication inhibitors” (Janssen Pharmaceuticals, Inc., priority 2015, dated 2020).
# Assays:
# [1] = tested on: DENV-2 16681 strain labeled with eGFP; experiment: DENV-2 antiviral assay (eGFP fluorescence read-out in Vero cells); type: cell-based, Dengue virus; settings: Dengue virus, DENV2, Vero, 72 h, DENV-2 16681 eGFP, MOI 0.5, 3 days
# Protocol: The antiviral activity of all the compounds of the invention was tested against the DENV-2 16681 strain which was labeled with enhanced green fluorescent protein (eGPF). The culture medium consists of minimal essential medium supplemented with 2% of heat-inactivated fetal calf serum, 0.04% gentamycin (50 mg/mL) and 2 mM of L-glutamine. Vero cells, obtained from ECACC, were suspended in culture medium and 25 μL was added to 384-well plates (2500 cells/well), which already contain the antiviral compounds. Typically, these plates contain a 5-fold serial dilution of 9 dilution steps of the test compound at 200 times the final concentration in 100% DMSO (200 nL). […] Finally, each plate contains wells which are assigned as virus controls (containing cells and virus in the absence of compound), cell controls (containing cells in the absence of virus and compound) and medium controls (containing medium in the absence of cells, virus and compounds). To the wells assigned as medium control, 25 μL of culture medium was added instead of Vero cells. Once the cells were added to the plates, the plates were incubated for 30 minutes at room temperature to allow the cells to distribute evenly within the wells. Next, the plates were incubated in a fully humidified incubator (37° C., 5% CO2) until the next day. Then, DENV-2 strain 16681, labeled with eGFP, was added at a multiplicity of infection (MOI) of 0.5. Therefore, 15 μL of virus suspension was added to all the wells containing test compound and to the wells assigned as virus control. In parallel, 15 μL of culture medium was added to the medium and cell controls. Next, the plates were incubated for 3 days in a fully humidified incubator (37° C., 5% CO2). At the day of the read out, the eGFP fluorescence was measured using an automated fluorescence microscope at 488 nm (blue laser). Using an in-house LIMS system, inhibition dose response curves for each compound were calculated and the half maximal effective concentration (EC50) was determined. Therefore, the percent inhibition (I) for every test concentration is calculated using the following formula: I=100*([…])/(SVC−SCC); ST, SCC and SVC are the amount of eGFP signal in the test compound, cell control and virus control wells, respectively. The EC50 represents the concentration of a compound at which the virus replication is inhibited with 50%, as measured by a 50% reduction of the eGFP fluorescent intensity compared to the virus control. The EC50 is calculated using linear interpolation (Table 1).
# in vitro = settings: African green monkey
smiles,measurement,setting,value
"COc1cc(NC(C(=O)c2c[nH]c3cc(F)ccc23)c2ccc(F)cc2OCCO)cc(S(C)(=O)=O)c1 (racemic) [Compound 1, 1-(6-fluoro-1H-indol-3-yl)-2-(4-fluoro-2-(2-hydroxyethoxy)phenyl)-2-((3-methoxy-5-(methylsulfonyl)phenyl)amino)ethanone]",EC50,[1],1.8 nM
same,CC50,in vitro,7600 nM
"COc1cc(NC(C(=O)c2c[nH]c3cc(Cl)ccc23)c2ccc(F)cc2OCCO)cc(S(C)(=O)=O)c1 (racemic) [Compound 2, 1-(6-chloro-1H-indol-3-yl)-2-(4-fluoro-2-(2-hydroxyethoxy)phenyl)-2-((3-methoxy-5-(methylsulfonyl)phenyl)amino)-ethanone]",EC50,[1],0.81 nM
same,CC50,in vitro,6200 nM
"COc1cc(NC(C(=O)c2c[nH]c3c(C)c(F)ccc23)c2ccc(F)cc2OCCO)cc(S(C)(=O)=O)c1 (racemic) [Compound 3, 2-(4-fluoro-2-(2-hydroxyethoxy)phenyl)-1-(6-fluoro-7-methyl-1H-indol-3-yl)-2-((3-methoxy-5-(methylsulfonyl)phenyl)amino)ethanone]",EC50,[1],1.2 nM
same,CC50,in vitro,5100 nM
"COc1cc(NC(C(=O)c2c[nH]c3c(C)c(Cl)ccc23)c2ccc(F)cc2OCCO)cc(S(C)(=O)=O)c1 (racemic) [Compound 4, 1-(6-chloro-7-methyl-1H-indol-3-yl)-2-(4-fluoro-2-(2-hydroxyethoxy)phenyl)-2-((3-methoxy-5-(methylsulfonyl)phenyl)amino)ethanone]",EC50,[1],0.37 nM
same,CC50,in vitro,3500 nM
"COc1cc(NC(C(=O)c2c[nH]c3cc(F)c(F)cc23)c2ccc(F)cc2OCCO)cc(S(C)(=O)=O)c1 (racemic) [Compound 5, 1-(5,6-difluoro-1H-indol-3-yl)-2-(4-fluoro-2-(2-hydroxyethoxy)phenyl)-2-((3-methoxy-5-(methylsulfonyl)phenyl)-amino)ethanone]",EC50,[1],1 nM
same,CC50,in vitro,6900 nM
"COc1cc(NC(C(=O)c2c[nH]c3cc(OC)c(C)cc23)c2ccc(F)cc2OCCO)cc(S(C)(=O)=O)c1 (racemic) [Compound 6, 2-(4-fluoro-2-(2-hydroxyethoxy)phenyl)-2-((3-methoxy-5-(methylsulfonyl)phenyl)amino)-1-(6-methoxy-5-methyl-1H-indol-3-yl)ethanone]",EC50,[1],1.4 nM
same,CC50,in vitro,5800 nM
"COc1cc(NC(C(=O)c2c[nH]c3c(F)cc(C)cc23)c2ccc(F)cc2OCCO)cc(S(C)(=O)=O)c1 (racemic) [Compound 8, 2-(4-fluoro-2-(2-hydroxyethoxy)phenyl)-1-(7-fluoro-5-methyl-1H-indol-3-yl)-2-((3-methoxy-5-(methylsulfonyl)phenyl)amino)ethanone]",EC50,[1],2.3 nM
same,CC50,in vitro,6900 nM
"COc1cc(NC(C(=O)c2c[nH]c3cc(OC)c(OC(F)(F)F)cc23)c2ccc(F)cc2OCCO)cc(S(C)(=O)=O)c1 (racemic) [Compound 11, 2-(4-fluoro-2-(2-hydroxyethoxy)phenyl)-2-((3-methoxy-5-(methyl-sulfonyl)phenyl)amino)-1-(6-methoxy-5-(trifluoromethoxy)-1H-indol-3-yl)ethanone]",EC50,[1],0.48 nM
same,CC50,in vitro,9000 nM
"COc1cc(NC(C(=O)c2c[nH]c3c(C)cc(OC(F)(F)F)cc23)c2ccc(F)cc2OCCO)cc(S(C)(=O)=O)c1 (racemic) [Compound 12, 2-(4-fluoro-2-(2-hydroxyethoxy)phenyl)-2-((3-methoxy-5-(methylsulfonyl)phenyl)amino)-1-(7-methyl-5-(trifluoromethoxy)-1H-indol-3-yl)ethanone]",EC50,[1],0.22 nM
same,CC50,in vitro,3700 nM
